Reference: patent US20220289720A1, “ARYL SULFONAMIDES AS SMALL MOLECULE STAT3 INHIBITORS” (UNIVERSITY OF HAWAII, priority 2019, published 2022)

Tests used:
Stat3 = Stat3 (Mus musculus, UniProt P42227); test: Stat3 DNA-binding activity in vitro, electrophoretic mobility shift assay (EMSA) on nuclear extracts; format: biochemical; settings: nuclear extracts containing activated Stat3 pre-incubated with compound 30 min at room temperature, radiolabeled hSIE probe
Protocol: FIGS. 3A-3D. show the effect of aryl sulfonamido compounds described herein on Stat3 DNA-binding activity in vitro. […] Positions of Stat3:DNA complexes in gel are labeled; control lanes (0) represent nuclear extracts pre-treated with 10% DMSO.
Nuclear extract preparation, gel shift assays, and densitometric analysis. […] Except where indicated, nuclear extracts were pre-incubated with compound for 30 min at room temperature prior to incubation with the radiolabeled probe for 30 min at 30° C. before subjecting to EMSA analysis. Where appropriate, bands corresponding to Stat3:DNA complexes were scanned and quantified for each concentration of compound using ImageJ and plotted as percent of control (DMSO) against concentration of compound, from which the IC50 values were derived.
The inhibitory activities of the representative analogs against in vitro Stat3 DNA-binding activity, as measured by electrophoretic mobility shift assay (EMSA) for representative compounds from the Examples above are shown in FIGS. 3A-3D and summarized in Table 1.
Table 1. Stat3 DNA-binding activity in vitro of aryl sulfonamido compounds described herein, including their corresponding referenced names (e.g., H203), as measured by electrophoretic mobility shift assay (EMSA). The inhibition metrics are presented in units of micromolar (μM).

[1] = system: Stat3 DNA-binding activity in MDA-MB-231 cells; test: EMSA of nuclear extracts from treated human breast cancer cells (intracellular Stat3 signaling); format: cell-based; settings: 0.5, 1, 2, 3, 4, 5 and 10 μM, 0-72 h
Protocol: Nuclear extract preparation, gel shift assays, and densitometric analysis. […] The ^32P-labeled oligonucleotide probes used were hSIE (high affinity sis-inducible element from the c-fos gene, m67 variant, 5′-[…]) (SEQ ID NO: 1) that binds Stat1 and Stat3 and MGFe (mammary gland factor element from the bovine β-casein gene promoter, 5′-[…]) (SEQ ID NO: 2) for Stat1 and Stat5 binding. Except where indicated, nuclear extracts were pre-incubated with compound for 30 min at room temperature prior to incubation with the radiolabeled probe for 30 min at 30° C. before subjecting to EMSA analysis. Where appropriate, bands corresponding to Stat3:DNA complexes were scanned and quantified for each concentration of compound using ImageJ and plotted as percent of control (DMSO) against concentration of compound, from which the IC50 values were derived.
Aryl sulfonamido azetidine compounds were investigated for their inhibitory effects of the active analogs on intracellular Stat3 signaling. […] Nuclear extracts are prepared and subjected to EMSA analysis for Stat3 DNA-binding activity. […] Stat3 DNA-binding activity in MDA-MB-231 cells, is inhibited by the compounds following treatment as measured periodically up to 72 h.

[2] = Body weight of treated mice in the xenograft study; format: in vivo, mouse; settings: 10 mg/kg every other day, intraperitoneally, treated vs untreated mice
Protocol: (§1) (5 mice per group). The subjects were administered intraperitoneally.

MDA-MB-231 = test: Cell growth by trypan blue exclusion/phase-contrast microscopy; format: cell-based; settings: Homo sapiens, MDA-MB-231, read-out: IC50, MDA-MB-231 cell growth
Protocol: FIGS. 1A-1N. Show the effects of aryl sulfonamido azetidine compounds on cell viability in vitro relative to control (untreated cells). […] Cells in 6-well plates were treated once with 0.05% DMSO, or at the indicated concentrations (0.5, 1, 2, 3, 4, 5 and 10 μM if not otherwise so indicated) of the test compounds. […] The compound names are correlated with the structures provided in the Examples in Table 1.
Cell proliferation and viability assay. […] Cells in 6-well or 96-well plates were treated with or without compounds for the indicated concentrations and time, and subjected to MTT assay or CyQuant cell proliferation assay (Invitrogen/ThermoFisher Scientific), or harvested and the viable cells were counted by trypan blue exclusion with phase-contrast microscopy.
Constitutive Stat3 activity promotes tumor cell growth and proliferation and survival (Darnell J E (2005) Nat Med. 11:595-6; Bowman T, et al., (2000) Oncogene 19:2474-2488). An aryl sulfonamido azetidine compound, H182, was tested against tumor cells harboring constitutively-active Stat3.

[3] = system: subcutaneous MDA-MB-231 tumor xenografts; test: Growth of subcutaneous MDA-MB-231 tumor xenografts; format: in vivo, mouse; settings: 10 mg/kg every other day, intraperitoneally, vs vehicle control
Protocol: as §1

Sequence of Stat3 (P42227 2-770): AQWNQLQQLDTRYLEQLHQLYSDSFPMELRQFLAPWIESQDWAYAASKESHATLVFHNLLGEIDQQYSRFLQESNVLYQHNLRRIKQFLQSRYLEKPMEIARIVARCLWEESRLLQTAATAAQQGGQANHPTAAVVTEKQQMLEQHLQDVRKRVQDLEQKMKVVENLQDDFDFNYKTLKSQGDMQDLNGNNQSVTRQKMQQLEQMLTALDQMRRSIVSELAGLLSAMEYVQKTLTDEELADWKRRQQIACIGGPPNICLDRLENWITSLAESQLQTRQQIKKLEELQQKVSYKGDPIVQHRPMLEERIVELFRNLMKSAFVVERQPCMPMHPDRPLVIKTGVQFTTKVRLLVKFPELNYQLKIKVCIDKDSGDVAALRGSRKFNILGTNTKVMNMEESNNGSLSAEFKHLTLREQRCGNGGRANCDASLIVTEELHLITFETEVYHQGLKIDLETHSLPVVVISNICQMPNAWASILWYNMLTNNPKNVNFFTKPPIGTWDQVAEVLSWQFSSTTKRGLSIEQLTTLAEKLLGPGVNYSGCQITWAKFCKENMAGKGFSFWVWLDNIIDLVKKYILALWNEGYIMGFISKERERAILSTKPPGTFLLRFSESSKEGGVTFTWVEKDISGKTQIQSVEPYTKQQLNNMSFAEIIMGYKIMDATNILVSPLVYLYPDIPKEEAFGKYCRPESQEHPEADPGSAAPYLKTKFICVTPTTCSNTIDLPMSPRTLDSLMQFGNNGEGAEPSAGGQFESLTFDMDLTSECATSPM

Work on `Cn1ccc2cc(N(Cc3ccc(C4CCCCC4)cn3)C(=O)[C@H]3CCN3S(=O)(=O)c3c(F)c(F)c(F)c(F)c3F)ccc2c1=O` [Example 22, (R)—N-((5-cyclohexylpyridin-2-yl)methyl)-N-(2-methyl-1-oxo-1,2-dihydroisoquinolin-6-yl)-1-((perfluorophenyl)sulfonyl)azetidine-2-carboxamide] yielded an IC50 (Stat3) of 866 ± 85 nM.

For `Cn1cnc2cc(N(Cc3ccc(C4CCCCC4)cn3)C(=O)[C@H]3CCN3S(=O)(=O)c3c(F)c(F)c(F)c(F)c3F)ccc2c1=O` [Example 23, (R)—N-((5-cyclohexylpyridin-2-yl)methyl)-N-(3-methyl-4-oxo-3,4-dihydroquinazolin-7-yl)-1-((perfluorophenyl)sulfonyl)azetidine-2-carboxamide], the IC50 (Stat3) was 1150 ± 40 nM.

For `O=C([C@H]1CCN1S(=O)(=O)c1c(F)c(F)c(F)c(F)c1F)N(Cc1ccc(C2CCCCC2)cn1)c1ccc2c(=O)[nH]ccc2c1` [Example 25, (R)—N-((5-cyclohexylpyridin-2-yl)methyl)-N-(1-oxo-1,2-dihydroisoquinolin-6-yl)-1-((perfluorophenyl)sulfonyl)azetidine-2-carboxamide], the IC50 (Stat3) was 788 ± 39 nM.

With `O=C([C@H]1CCN1S(=O)(=O)c1c(F)c(F)c(F)c(F)c1F)N(Cc1ccc(C2CCCCC2)nc1)c1ccc2c(=O)[nH]ncc2c1` [Example H172] the “Stat3 DNA-binding activity in MDA-MB-231 cells” value [1] was “inhibited”.

For `O=C([C@H]1CCN1S(=O)(=O)c1c(F)c(F)c(F)c(F)c1F)N(Cc1ccc(C2CCCCC2)cn1)c1ccc2c(=O)[nH]cnc2c1` [Example H182], the body weight [2] was “maintaining subject body weight”, the IC50 (MDA-MB-231) was < 10000 nM and the tumor growth [3] was “reduce the tumor growth rate”. For the same molecule, the “Stat3 DNA-binding activity in MDA-MB-231 cells” value [1] was “inhibited”.
